What follows are compounds tested against T1, integrin CD11b/CD18 (K562 CD11b/CD18 cells) (Homo sapiens, UniProt P05107+P11215) (assay: K562 cell adhesion assay with immobilized ligands). Details: cell-based adhesion assay, K562 cells, 30 min at 37° C.
T1 construct: host or cells: K562 cells stably transfected with wild-type CD11b/CD18
Format: cell-based
Source text: Cell Lines. K562 cells (ATCC) stably transfected with wild-type integrin CD11b/CD18 (K562 CD11b/CD18) have been described previously (Park, etal. J Biomol Screen, 2007. 12(3): 406; Gupta, et al., Blood, 2007. 109(8): 3513; incorporated herein by reference in their entirety). Mutant CD11bE320A has been described previously (Alonso, et al. Curr Biol, 2002. 12(10): R340; incorporated herein by reference in its entirety). K562 cells stably transfected with mutant integrin CD11bE320A/CD18 (K562 E320A) were generated according to literature protocols (Park, supra; Gupta, supra). All cell lines were maintained in Iscove's Modified Dulbecco's Medium (IMDM) supplemented with 10% heat-inactivated fetal bovine serum, 50 IU/ml penicillin and streptomycin and 0.5 mg/ml G418.
K562 Cell Adhesion Assay. Cell adhesion assays with immobilized ligands were performed as previously described (Park, supra). Assays with all different K562 cell lines (K562, K562 CD11b/CD18 and K562 E320A) were performed in an identical fashion. Briefly, 384-well Highbind microtiter plates were coated with a 30 μL solution of ligand in Phosphate Buffered Saline, pH 7.4 containing 1 mM each of Ca^2+ and Mg^2+ ions (PBS^++) overnight at 4° C. Ligand Fg was coated at a concentration of 5-15 μg/mL and iC3b at 1-5 μg/mL. Heterodimer specific mAb IB4 was coated at 1-20 μg/mL. Subsequently, the non-specific sites in the wells were blocked by incubation with 1% non-fat milk in Tris Buffered Saline (TBS), pH 7.4, at room temperature for 1 h. Next, the wells were washed three times with TBS. K562 cells were suspended in the assay buffer (TBS containing 1 mM each of Ca^2+ and Mg^2+ ions (TBS^++)) and were transferred to the ligand-coated wells (30,000 cells/well). Stock solutions of the integrin agonists were prepared by dissolving the compounds in DMSO at a concentration of 2-10 mM. Final concentration of DMSO in the assay was approximately 1-2%. K562 cells were incubated in the presence of increasing concentration of integrin agonist for 30 min at 37° C. To dislodge non-adherent cells, the assay plates were gently inverted and kept in the inverted position for 30 min at room temperature. Cells remaining adherent were fixed using formaldehyde and were quantitated using imaging microscopy, as previously described (Park, supra).
An EC50 of 1000 to 10000 nM was found for O=C(O)c1ccc(-c2ccc(/C=C3\NC(=S)N(Cc4ccccc4)C3=O)o2)cc1 [Compound 4, (Z)-4-(5-((1-Benzyl-5-oxo-2-thioxoimidazolidin-4-ylidene)methyl)furan-2-yl)benzoic acid] in this work.
An EC50 of 100 to 250 nM was found for COc1ccc(CN2C(=O)/C(=C/c3ccc(-c4ccc(C(=O)O)cc4)o3)SC2=S)cc1 [Compound 34, (Z)-4-(5-((3-(4-Methoxybenzyl)-4-oxo-2-thioxothiazolidin-5-ylidene)methyl)furan-2-yl)benzoic acid] in this work.
CN1C(=O)N(Cc2ccccc2)C(=O)/C1=C/c1ccc(-c2ccc(C(=O)O)cc2)o1 [Compound 2, (Z)-4-(5-((1-Benzyl-3-methyl-2,5-dioxoimidazolidin-4-ylidene)methyl)furan-2-yl)benzoic acid] was tested, and the EC50 was > 10000 nM.
An EC50 of 250 to 1000 nM was found for O=C(O)c1ccc(-c2ccc(/C=C3\SC(=S)N(Cc4ccccc4Cl)C3=O)o2)cc1 [Compound 36, (Z)-4-(5-((3-(2-Chlorobenzyl)-4-oxo-2-thioxothiazolidin-5-ylidene)methyl)furan-2-yl)benzoic acid] in this work.
An EC50 of 250 to 1000 nM was found for COc1ccccc1CN1C(=O)/C(=C/c2ccc(-c3ccc(C(=O)O)cc3)o2)SC1=S [Compound 27, (Z)-4-(5-((3-(2-Methoxybenzyl)-4-oxo-2-thioxothiazolidin-5-ylidene)methyl)furan-2-yl)benzoic acid] in this work.
An EC50 of 100 to 250 nM was found for COC(=O)c1ccc(-c2ccc(/C=C3\SC(=S)N(Cc4ccc(F)cc4)C3=O)o2)cn1 [Compound 16, Methyl (Z)-5-(5-((3-(4-fluorobenzyl)-4-oxo-2-thioxothiazolidin-5-ylidene)methyl)furan-2-yl)picolinate] in this work.
An EC50 of 250 to 1000 nM was found for COC(=O)c1ccc(-c2ccc(/C=C3\OC(=S)N(Cc4ccc(F)cc4)C3=O)o2)cn1 [Compound 10, methyl (Z)-5-(5-((3-(4-fluorobenzyl)-4-oxo-2-thioxooxazolidin-5-ylidene)methyl)furan-2-yl)picolinate] in this work.
An EC50 of 1000 to 10000 nM was found for O=C(O)c1ccc(-c2nccc(/C=C3\SC(=S)N(Cc4ccccc4)C3=O)n2)cc1 [Compound 19, (Z)-4-(4-((3-Benzyl-4-oxo-2-thioxothiazolidin-5-ylidene)methyl)pyrimidin-2-yl)benzoic acid] in this work.
For CCOC(=O)c1ccc(-c2ccc(CN3CC(=S)N(Cc4ccccc4)C3=O)o2)cc1 [Compound 7, Ethyl 4-(5-((3-benzyl-2-oxo-4-thioxoimidazolidin-1-yl)methyl)furan-2-yl)benzoate], the EC50 was > 10000 nM.
An EC50 of 250 to 1000 nM was found for Cc1cccc(CN2C(=O)/C(=C/c3ccc(-c4ccc(C(=O)O)cc4)o3)SC2=S)c1 [Compound 28, (Z)-4-(5-((3-(3-Methylbenzyl)-4-oxo-2-thioxothiazolidin-5-lidene)methyl)furan-2-yl)benzoic acid] in this work.
An EC50 of 1000 to 10000 nM was found for O=C(O)c1ccc(-c2ccnc(/C=C3\SC(=S)N(Cc4ccc(F)cc4)C3=O)c2)cc1 [Compound 22, (Z)-4-(2-((3-(4-Fluorobenzyl)-4-oxo-2-thioxothiazolidin-5-ylidene)methyl)pyridin-4-yl)benzoic acid] in this work.
In the case of CN1C(=S)N(Cc2ccccc2)C(=O)/C1=C/c1ccc(-c2ccc(C(=O)O)cc2)o1 [Compound 5, (Z)-4-(5-((1-Benzyl-3-methyl-5-oxo-2-thioxoimidazolidin-4-ylidene)methyl)furan-2-yl)benzoic acid], the EC50 is reported as > 10000 nM.
For O=C(O)c1ccc(-c2ccc(/C=C3\NC(=O)N(Cc4ccccc4)C3=O)o2)cc1 [Compound 3, (Z)-4-(5-((1-Benzyl-2,5-dioxoimidazolidin-4-ylidene)methyl)furan-2-yl)benzoic acid], the EC50 was > 10000 nM.
An EC50 of 250 to 1000 nM was found for O=C(O)c1ccc(-c2cccc(/C=C3\SC(=S)N(Cc4ccc(F)cc4)C3=O)n2)cc1 [Compound 21, (Z)-4-(6-((3-(4-Fluorobenzyl)-4-oxo-2-thioxothiazolidin-5-ylidene)methyl)pyridin-2-yl)benzoic acid] in this work.
O=C(O)c1ccc(-c2cccc(/C=C3\OC(=S)N(Cc4ccc(F)cc4)C3=O)c2)cc1 [Compound 9, (Z)-3′-((3-(4-Fluorobenzyl)-4-oxo-2-thioxooxazolidin-5-ylidene)methyl)-[1,1′-biphenyl]-4-carboxylic acid] was tested, and the EC50 was > 10000 nM.
An EC50 of 100 to 250 nM was found for O=C(O)c1ccc(-c2ccc(/C=C3\SC(=S)N(Cc4cccc(Cl)c4)C3=O)o2)cc1 [Compound 30, (Z)-4-(5-((3-(3-Chlorobenzyl)-4-oxo-2-thioxothiazolidin-5-ylidene)methyl)furan-2-yl)benzoic acid] in this work.
An EC50 of 1000 to 10000 nM was found for O=C(O)c1ccc(-c2cccc(/C=C3\SC(=S)N(Cc4ccccc4)C3=O)n2)cc1 [Compound 18, (Z)-4-(6-((3-Benzyl-4-oxo-2-thioxothiazolidin-5-ylidene)methyl)pyridin-2-yl)benzoic acid] in this work.
An EC50 of 100 to 250 nM was found for O=C(O)c1ccc(-c2ccc(/C=C3\SC(=S)N(Cc4ccc(F)cc4)C3=O)o2)cc1 [Compound 32, (Z)-4-(5-((3-(4-Fluorobenzyl)-4-oxo-2-thioxothiazolidin-5-ylidene)methyl)furan-2-yl)benzoic acid] in this work.
In the case of O=C(O)c1ccc(-c2ccc(CN3CC(=O)N(Cc4ccccc4)C3=O)o2)cc1 [Compound 11, 4-(5-((3-Benzyl-2,4-dioxoimidazolidin-1-yl)methyl)furan-2-yl)benzoic acid], the EC50 is reported as > 10000 nM.
An EC50 of 250 to 1000 nM was found for COc1cccc(CN2C(=O)/C(=C/c3ccc(-c4ccc(C(=O)O)cc4)o3)SC2=S)c1 [Compound 29, (Z)-4-(5-((3-(3-Methoxybenzyl)-4-oxo-2-thioxothiazolidin-5-ylidene)methyl)furan-2-yl)benzoic acid] in this work.
An EC50 of 1000 to 10000 nM was found for O=C(O)c1ccc(-c2ccc(/C=C3\SC(=S)N(Cc4ccccc4O)C3=O)o2)cc1 [Compound 41, (Z)-4-(5-((3-(2-hydroxybenzyl)-4-oxo-2-thioxothiazolidin-5-ylidene)methyl)furan-2-yl)benzoic acid] in this work.
An EC50 of 250 to 1000 nM was found for Cc1cccc(CN2C(=O)/C(=C/c3ccc(-c4ccc(C(=O)O)cc4)o3)SC2=S)c1C [Compound 31, (Z)-4-(5-((3-(2,3-Dimethylbenzyl)-4-oxo-2-thioxothiazolidin-5-ylidene)methyl)furan-2-yl)benzoic acid] in this work.
An EC50 of 250 to 1000 nM was found for O=C(O)c1ccc(-c2ccc(/C=C3\SC(=S)N(Cc4ccccc4)C3=O)o2)nc1 [Compound 14, (Z)-6-(5-((3-Benzyl-4-oxo-2-thioxothiazolidin-5-ylidene)methyl)furan-2-yl)nicotinic acid] in this work.
An EC50 of 100 to 250 nM was found for Cc1ccc(CN2C(=O)/C(=C/c3ccc(-c4ccc(C(=O)O)cc4)o3)SC2=S)cc1C [Compound 38, (Z)-4-(5-((3-(3,4-Dimethylbenzyl)-4-oxo-2-thioxothiazolidin-5-ylidene)methyl)furan-2-yl)benzoic acid] in this work.
CCOC(=O)c1ccc(-c2ccc(CN3CC(=O)N(Cc4ccccc4)C3=O)o2)cc1 [Compound 6, Ethyl 4-(5-((3-benzyl-2,4-dioxoimidazolidin-1-yl)methyl)furan-2-yl)benzoate] was tested, and the EC50 was > 10000 nM.
With COC(=O)c1ccc(-c2cccc(/C=C3\SC(=S)N(Cc4ccccc4)C3=O)c2)cc1 [Compound 23, methyl (Z)-3′-((3-benzyl-4-oxo-2-thioxothiazolidin-5-ylidene)methyl)-[1,1′-biphenyl]-4-carboxylate] the EC50 was > 10000 nM.
An EC50 of 1000 to 10000 nM was found for O=C(O)c1ccc(-c2cccc(/C=C3\SC(=S)N(Cc4ccccc4)C3=O)c2)cc1 [Compound 17, (Z)-3′-((3-Benzyl-4-oxo-2-thioxothiazolidin-5-ylidene)methyl)-[1,1′-biphenyl]-4-carboxylic acid] in this work.
In the case of COC(=O)c1ccc(-c2cccc(/C=C3\SC(=S)N(Cc4ccccc4)C3=O)n2)cc1 [Compound 24, Methyl (Z)-4-(6-((3-benzyl-4-oxo-2-thioxothiazolidin-5-ylidene)methyl)pyridin-2-yl)benzoate], the EC50 is reported as > 10000 nM.
An EC50 of 1000 to 10000 nM was found for O=C(O)c1ccc(-c2ccc(/C=C3\SC(=S)N(CC4CCCCC4)C3=O)o2)cc1 [Compound 40, (Z)-4-(5-((3-(Cyclohexylmethyl)-4-oxo-2-thioxothiazolidin-5-ylidene)methyl)furan-2-yl)benzoic acid] in this work.
An EC50 of 250 to 1000 nM was found for Cc1ccccc1CN1C(=O)/C(=C/c2ccc(-c3ccc(C(=O)O)cc3)o2)SC1=S [Compound 26, (Z)-4-(5-((3-(2-Methylbenzyl)-4-oxo-2-thioxothiazolidin-5-ylidene)methyl)furan-2-yl)benzoic acid] in this work.
An EC50 of 100 to 250 nM was found for O=C(O)c1ccc(-c2ccc(/C=C3\SC(=S)N(Cc4ccccc4)C3=O)s2)cc1 [Compound 25, (Z)-4-(5-((3-Benzyl-4-oxo-2-thioxothiazolidin-5-ylidene)methyl)thiophen-2-yl)benzoic acid] in this work.
